Series [1] can be described thus: Loading of other small molecules into the nanoparticles and their release. In kind it is physicochemical. Conditions: 10%, 20% or 40% small molecule. On the procedure:
The formulation procedure used is the same as that used in FIG. 1. Release was measured by absorbance maximum at 280 nm, 300 nm, and 340 nm, respectively. 22.5 mg of PLGA and 7.5 mg of PLGA-PEG were used along with 3 mg (10%), 6 mg (20%), or 12 mg (40%) of small molecule. Note that the release profile can be delayed by loading less drug. Note that the encapsulation efficiency can increase (epacadostat) or decrease (resiquimod, ruxolitinib) by increasing initial loading amount.

Series [2] is described as follows: SD-208 solubility, loading and release from PEG-PLGA nanoparticles. In kind it is physicochemical. The procedure: PLGA-based nanoparticles were prepared using single-emulsion evaporation. PLGA (AP041, acid end-capped, 50:50, 10-15 kDa, Akina) was blended with Mal-PEG-PLGA (AI53, diblock copolymer, 50:50, 5-10 kDa, Akina) at 25% w/w. The polymers were dissolved in 1 mL dichloromethane (Sigma) and added to 6 mL of ice-cold 0.25% PVA (30,000-70,000 g/mol, Sigma) in 50 mM phosphate buffer, pH 5.8. The two phases were emulsified using a sonic probe (Qsonica Q700 with microtip, amplitude 10, 3 s power with 2 s break). […] The emulsion was stirred at room temperature for 3 h to evaporate the dichloromethane and afterwards purified by two wash-spin cycles in PBS at 20,000 g for 10 min. Nanoparticles s were assessed for size distribution using a Zetasizer Nano series ZS90, and drug encapsulation was determined by absorbance at 370 nm.
Encapsulation efficiency and drug release kinetics were analyzed by its absorbance maximum at 370 nm (FIG. 43A).

In another series the test system is CD8+ T cells. As to the kind of experiment: CD8+ T cell activation with anti-CD3/CD28 beads in presence of TGFβ1 (proliferation, granzyme B, IFNγ). In kind it is cell-based, mouse. On the procedure: FIG. 34. […] Intracellular granzyme B expression was assessed by flow cytometry, n=3±SD. […] Fold change of interferon-γ (IFNγ) was measured by ELISA, n=4±SEM.
In vitro binding of nanoparticles was assessed after incubation of 250,000 enriched T cells with fluorescently (DiD, Life Technologies) labelled nanoparticles at different concentrations for 30 min at 37° C. After the incubation, T cells were washed 3 to 5 times in PBS and directly assessed by flow cytometry for DiD fluorescence. T cells isolated from OT-I Rag^−/− mice were activated by Dynabeads Mouse T-Activator CD3/CD28 (Thermo Scientific) at a ratio of 2:1 T cell to bead or by ova-expressing B16 melanoma cells at a ratio of 10:1 T cell to B16 cell. Carboxyfluorescein succinimidyl ester (CFSE, BioLegend) or cell trace violet (CTV, Thermo Scientific) was used to assess T cell proliferation; the labeling was carried out according to the manufacturer's recommendations. Mouse TGFβ1 was purchased from Cell Signaling Technologies, and T cell supernatants were analyzed by mouse IFN-γ ELISA MAX™ (BioLegend).

Setting [3] is: SD-208 released from nanoparticles versus free inhibitor in DMSO.

The structures appear in SMILES notation.

For the compound `N#CC[C@H](C1CCCC1)n1cc(-c2ncnc3[nH]ccc23)cn1` [ruxolitinib], the “change of encapsulation efficiency by increasing initial loading amount” value in series [1] was “decrease”.
For the compound `Fc1ccc(Cl)cc1-c1nc(Nc2ccncc2)c2nccnc2n1` [SD-208], in series [2], the “amount entrapped in PEG-PLGA nanoparticles” value was found to be 20 μg/mg polymer and the water solubility entry is “poorly water soluble”. Further, in series [2] (PBS containing 10% serum), the “release from the nanoparticles” value was “released slowly from the nanoparticles over the course of weeks”. In addition, the “TGFβ-mediated inhibition of T cell proliferation” value in the series with CD8+ T cells (SD-208 released from nanoparticles versus free SD-208, TGFβ1 2 ng/mL, 72 hours) is on record as “reversed in a comparable manner”. Further, in the series on CD8+ T cells (setting [3]), the “granzyme B” value is recorded as “upregulated to a similar extent as free inhibitor” and the “interferon γ (IFNγ)” value was “upregulated to a similar extent as free inhibitor”.
Turning to `NS(=O)(=O)NCCNc1nonc1/C(=N/O)Nc1ccc(F)c(Br)c1` [epacadostat], the “change of encapsulation efficiency by increasing initial loading amount” value in series [1] is on record as “increase”.
